From patent US10851065B2 (Eisai R&D Management Co., Ltd., priority 2015, dated 2020)

Columns and labels:
[1] = tested on: MCF7-WT cells (MCF7 ER-alpha wildtype); assay: In vitro proliferation (viability) assay, CellTiter-Glo, MCF7-WT cells; format: cell-based; settings: Homo sapiens; MCF7-WT cells, 6 days, CTG vs day 0; mean ± SD-type spread (n); read-out: GI50 WT
Method: (§1) MCF7 BUS cells (Coser, et al., (2003) PNAS 100(24): 13994-13999) were maintained in Dulbecco's Modified Eagle Medium supplemented with 10% FBS, 4 mM L-glutamine and 1× non-essential amino acids. Lenti-X 293T cells (Clontech, Cat #632180) were routinely cultured in Dulbecco's Modified Eagle Medium supplemented with 10% FBS.
(§2) The QuikChange II XL Site-Directed Mutagenesis Kit (Agilent Technologies, Cat #200523) was used to generate Y537S, Y537C, Y537N and D538G mutations within the ERα exon 8. Wild-type ESR1 cDNA (GeneCopoeia Inc., Cat #GC-A0322, accession no. NM 000125) was used as a template with the following mutagenesis primers (where the underlined nucleotides represent site mutations); Y537S: F-AAGAACGTGGTGCCCCTCTCTGACCTGCTGCTGGAGATG (SEQ ID NO: 1), R-CATCTCCAGCAGCAGGTCAGAGAGGGGCACCACGTTCTT (SEQ ID NO: 2); Y537N: F-AAGAACGTGGTGCCCCTCAATGACCTGCTGCTGGAGATG (SEQ ID NO: 3), R-CATCTCCAGCAGCAGGTCATTGAGGGGCACCACGTTCTT (SEQ ID NO: 4); Y537C: F-AAGAACGTGGTGCCCCTCTGTGACCTGCTGCTGGAGATG (SEQ ID NO: 5), R-CATCTCCAGCAGCAGGTCACAGAGGGGCACCACGTTCTT (SEQ ID NO: 6); D538G: F-AACGTGGTGCCCCTCTATGGCCTGCTGCTGGAGATGCTG (SEQ ID NO: 7), R-CAGCATCTCCAGCAGCAGGCCATAGAGGGGCACCACGTT (SEQ ID NO: 8). WT and mutant ESR1 cDNAs were cloned into the designation lentiviral vector pLenti6.3/V5-Dest (Invitrogen, Cat #V533-06). To make lentivirus, DNAs (WT and mutant ESR1) were co-transfected with packaging plasmids into Lenti-X 293T cells using TransIT (Mirus, Cat #MIR 2700). 48 h post-transfection, virus containing media was filtered and added to MCF7 cells in the presence of 8 µg/ml polybrene overnight. Two days following infection, cells were placed under selection with 10 μg/ml blasticidin for 2 weeks for stable expression.
(§3) MCF7-WT and -Y537S cells were seeded at 1500 cells/well in black-walled 96-well plates (assay plates, Costar, Cat #3904). In parallel, cells were also seeded in a separate 96-well plate (8 wells/cell line, control plate) for which a CTG (CellTiter-Glo® Luminescent Viability Assay, Promega, Cat #G7572) was measured the following day (day 0 reading). The day 0 reading was used for the GI50 calculation at the termination of the experiment. The day following seeding, compounds were added to assay plates. Briefly, a 1:4 serial dilution was prepared in DMSO at 200× final concentration for a total of 10 concentrations (9 dilutions containing compound and one is DMSO only). Serially diluted compounds were pipetted into medium to prepare a compound-medium mix at 10× final concentration. 10 μl of compound-medium mix was added to MCF7-WT and -Y537S cells at 3 wells/concentration (triplicate for each concentration). On day 3, media/compound was removed and replaced with fresh media/compound as described above. On day 6, CTG was measured and compared to day 0 readings from control plate to assess GI50.

[2] = tested on: MCF7-Y537S cells (MCF7 ER-alpha Y537S mutant); assay: In vitro proliferation (viability) assay, CellTiter-Glo, MCF7-Y537S cells; format: cell-based; settings: Homo sapiens; MCF7-Y537S cells, 6 days, CTG vs day 0; mean ± SD-type spread (n); read-out: GI50 MUT (Y537S)
Method: as §1, §2, §3

| GI50 [1] | GI50 [2] | Structure (SMILES) |
| --- | --- | --- |
| 1.59 nM | 22.3 nM | C#CCN(C)C(=O)/C=C/CNCCOc1ccc(/C(=C(/CC)c2ccccc2)c2ccc3[nH]ncc3c2)cc1 [Compound 8, (E)-4-((2-(4-((E)-1-(1H-indazol-5-yl)-2-phenylbut-1-en-1-yl)phenoxy)ethyl)amino)-N-methyl-N-(prop-2-yn-1-yl)but-2-enamide] |
| 5.57 nM | 118 nM | C#CCCN(C)C(=O)/C=C/CNCCOc1ccc(/C(=C(/CC)c2ccccc2)c2ccc3[nH]ncc3c2)cc1 [Compound 9, (E)-4-((2-(4-((E)-1-(1H-indazol-5-yl)-2-phenylbut-1-en-1-yl)phenoxy)ethyl)amino)-N-(but-3-yn-1-yl)-N-methylbut-2-enamide] |
| 2.22 ± 2.34 nM | 21.2 ± 17.2 nM | CC/C(=C(/c1ccc(OCCNC/C=C/C(=O)N2CCC2)cc1)c1ccc2[nH]ncc2c1)c1ccccc1 [Compound 10, (E)-4-((2-(4-((E)-1-(1H-indazol-5-yl)-2-phenylbut-1-en-1-yl)phenoxy)ethyl)amino)-1-(azetidin-1-yl)but-2-en-1-one] |
| 0.76 nM | 14 nM | CC/C(=C(/c1ccc(OCCNC/C=C/C(=O)N2CCCC2)cc1)c1ccc2[nH]ncc2c1)c1ccccc1 [Compound 11, (E)-4-((2-(4-((E)-1-(1H-indazol-5-yl)-2-phenylbut-1-en-1-yl)phenoxy)ethyl)amino)-1-(pyrrolidin-1-yl)but-2-en-1-one] |
| 1.69 nM | 36.7 nM | CC/C(=C(/c1ccc(OCCNC/C=C/C(=O)N2CCCCC2)cc1)c1ccc2[nH]ncc2c1)c1ccccc1 [Compound 12, (E)-4-((2-(4-((E)-1-(1H-indazol-5-yl)-2-phenylbut-1-en-1-yl)phenoxy)ethyl)amino)-1-(piperidin-1-yl)but-2-en-1-one] |

More lines, now with the values behind:

| Structure (SMILES) | GI50 [1] | GI50 [2] |
| --- | --- | --- |
| CC/C(=C(/c1ccc(OCCNC/C=C/C(=O)N(C)C)cc1)c1ccc2[nH]nc(F)c2c1)c1ccccc1 [Compound 2, (E)-4-((2-(4-((E)-1-(3-fluoro-1H-indazol-5-yl)-2-phenylbut-1-en-1-yl)phenoxy)ethyl)amino)-N,N-dimethylbut-2-enamide] | 5.56 ± 2.84 nM | 64.8 ± 37.2 nM |
| CC/C(=C(/c1ccc(OCCNC/C=C/C(=O)N(C)C)cc1)c1ccc2[nH]nc(F)c2c1)c1cc(F)cc(C(F)(F)F)c1 [Compound 3, (E)-4-((2-(4-((E)-1-(3-fluoro-1H-indazol-5-yl)-2-(3-fluoro-5-(trifluoromethyl)phenyl)but-1-en-1-yl)phenoxy)ethyl)amino)-N,N-dimethylbut-2-enamide] | 6.95 ± 2.47 nM | 159 ± 91.8 nM |
| CC/C(=C(/c1ccc(OCCNC/C=C/C(=O)N(C)C)cc1)c1ccc2[nH]ncc2c1F)c1ccccc1 [Compound 4, (E)-4-((2-(4-((E)-1-(4-fluoro-1H-indazol-5-yl)-2-phenylbut-1-en-1-yl)phenoxy)ethyl)amino)-N,N-dimethylbut-2-enamide] | 4.55 ± 3.34 nM | 36.3 ± 16 nM |
| CC/C(=C(/c1ccc(OCCNC/C=C/C(=O)N(C)C)cc1)c1ccc2[nH]ncc2c1)c1cc(F)cc(F)c1 [Compound 5, (E)-4-((2-(4-((E)-2-(3,5-difluorophenyl)-1-(1H-indazol-5-yl)but-1-en-1-yl)phenoxy)ethyl)amino)-N,N-dimethylbut-2-enamide] | 8.44 ± 3.87 nM | 81.4 ± 45.8 nM |
| CC/C(=C(/c1ccc(OCCNC/C=C/C(=O)N(C)C)cc1)c1ccc2[nH]ncc2c1)c1ccc(F)c(F)c1 [Compound 6, (E)-4-((2-(4-((E)-2-(3,4-difluorophenyl)-1-(1H-indazol-5-yl)but-1-en-1-yl)phenoxy)ethyl)amino)-N,N-dimethylbut-2-enamide] | 2.93 ± 2.83 nM | 111 ± 124 nM |
| CC/C(=C(/c1ccc(OCCNC/C=C/C(=O)N(C)C)cc1)c1ccc2[nH]ncc2c1)c1cc(F)cc(Cl)c1 [Compound 7, (E)-4-((2-(4-((E)-2-(3-chloro-5-fluorophenyl)-1-(1H-indazol-5-yl)but-1-en-1-yl)phenoxy)ethyl)amino)-N,N-dimethylbut-2-enamide] | 1.92 nM | 74.1 ± 55.2 nM |
